Data from patent US10067120B2, “Use of acetylated tubulin as a biomarker of drug response to furazanobenzimidazoles” (Basilea Pharmaceutica AG, priority 2011, dated 2018).

Columns and labels:
Format in all cases: cell-based, human
Jurkat = assay: FACS cell death assay, BAL27862-resistant versus parental Jurkat cells expressing GFP
Method: BAL27862-resistant sublines of human non-small cell lung cancer (H460 ATCC reference HTB-177; A549 ATCC reference CCL-185), ovarian cancer (SKOV3 ATCC reference HTB-77) and T-cell leukemia (Jurkat ATCC reference TIB-152) cell lines were generated by long-term selection in complete cell culture medium (RPMI-1640 containing 10% FBS; Sigma-Aldrich) by increasing BAL27862 concentrations in a stepwise fashion. […] The resistance factors were determined for the adherent cell lines H460, A549 and SKOV3 by measuring proliferation using the Crystal Violet assay, whereas for the suspension Jurkat cell line cell death was measured using FACS. […]
Jurkat cells stably expressing GFP (green fluorescence protein) were incubated with increasing BAL27862 concentrations in culture medium for 72 hours and then analyzed by FACS (excitation at 488 nm, emission at 525 nm). Dying or dead cells, showing a decreased fluorescence activity in comparison to living cells, were quantified (Green fluorescent protein as a novel tool to measure apoptosis and necrosis. Strebel et al, 2001, Cytometry 43(2): 126-133).
(§1) Antiproliferative IC50 and cell death EC50 values were calculated from concentration response curves using GraphPad Prism software. Resistance factors were calculated as a ratio of the IC50 or EC50 in the resistant line variant versus the IC50 or EC50 in the parental line.

[1] = system: HeLa cervical cancer cells; assay: Immunofluorescent staining of microtubules (anti-alpha tubulin); settings: 24 hours, 50 nM BAL27862
Method: (§2) A549 human non-small cell lung cancer (NSCLC, ATCC reference number CCL-185) cells, HeLa cervical cancer cells (ATCC reference number CCL-2) and SKBR3 breast carcinoma cells (ATCC reference number HTB-30) were seeded at densities of 50% on round microscope coverslips and cultured for 24 hours in RPMI-1640 containing 10% FCS (also referred to as FBS) at 37° C., 5% CO2. Compounds to be tested were dissolved in DMSO. The cell culture medium was replaced with medium containing the diluted compound(s) (paclitaxel, vinblastine, colchicine and nocodazole were purchased from Sigma-Aldrich) or vehicle. After treatment for the times indicated in the Brief Description of the Figures, coverslips were washed and cells were fixed in methanol/acetone (1:1) for 5 minutes at room temperature and subsequently incubated in blocking buffer (0.5% BSA and 0.1% TX-100 in PBS) for 30 minutes at room temperature. Specimens were then incubated with anti-alpha tubulin antibody (Sigma, 1:2000) for 1 hour at room temperature in blocking buffer. After several washing steps cells were incubated with AlexaFluor-488 goat-anti-mouse IgG (Molecular Probes, 1:3000) for 1 hour at room temperature followed by several washing steps with blocking buffer. Specimens were then mounted with ProLong Gold antifade (Molecular Probes) sealed with nail polish and examined with a Leica immunofluorescence microscope. Images were captured with a cooled CCD-camera and processed by ImageJ software.

A549 NSCLC cells = assay: as above; settings: for Microtubule phenotype of mitotic or G2/M arrested cells: 24 hours, 50 nM BAL27862, 80 nM Compound B, 20 nM Compound C
Method: as §2

[2] = system: SKBR3 breast cancer cells; assay: as above; settings: 24 hours, 50 nM BAL27862
Method: as §2

SKOV3 = assay: Crystal Violet proliferation assay, BAL27862-resistant versus parental SKOV3; settings: for Resistance factor (ratio IC50 BAL27862-resistant cell line variant versus IC50 parental cell line): 72 hours, Crystal Violet
Method: (§3) BAL27862-resistant sublines of human non-small cell lung cancer (H460 ATCC reference HTB-177; A549 ATCC reference CCL-185), ovarian cancer (SKOV3 ATCC reference HTB-77) and T-cell leukemia (Jurkat ATCC reference TIB-152) cell lines were generated by long-term selection in complete cell culture medium (RPMI-1640 containing 10% FBS; Sigma-Aldrich) by increasing BAL27862 concentrations in a stepwise fashion. […] The resistance factors were determined for the adherent cell lines H460, A549 and SKOV3 by measuring proliferation using the Crystal Violet assay, whereas for the suspension Jurkat cell line cell death was measured using FACS. The resistant sub lines were expanded at the highest tolerated BAL27862 concentration and subsequently frozen and stored in liquid nitrogen.
(§4) A549 (2000 cells/well), H460 (1000 cells/well) and SKOV3 (2000 cells/well) cells were seeded in 96 well plates. […] After medium was removed, cells were fixed and stained by adding 50 μl Crystal Violet stain (0.2% Crystal Violet in 50% Methanol) per well. Plates were incubated for 1 hour at room temperature. Subsequently the stain was decanted and plates were washed 4 times with double-distilled water. Plates were air-dried for several hours. Stain was dissolved by adding 100 μl buffer (0.1 M Tris pH 7.5, 0.2% SDS, 20% Ethanol) per well and shaking the plates. Absorbance at 590 nm was measured using a SpectraMax M2e plate reader (Molecular Devices).
as §1

A549 = assay: Crystal Violet proliferation assay, BAL27862-resistant versus parental A549; settings: for Resistance factor (ratio IC50 BAL27862-resistant cell line variant versus IC50 parental cell line): 72 hours, Crystal Violet
Method: as §3, §4, §1

H460 = assay: Crystal Violet proliferation assay, BAL27862-resistant versus parental H460; settings: for Resistance factor (ratio IC50 BAL27862-resistant cell line variant versus IC50 parental cell line): 72 hours, Crystal Violet
Method: as §3, §4, §1

BAL27862-resistant cells = assay: Response of BAL27862-resistant lines to other microtubule agents (all lines tested); settings: all lines tested (Table 1)
Method: as §3
A549 (2000 cells/well), H460 (1000 cells/well) and SKOV3 (2000 cells/well) cells were seeded in 96 well plates. […] After medium was removed, cells were fixed and stained by adding 50 μl Crystal Violet stain (0.2% Crystal Violet in 50% Methanol) per well. […] Absorbance at 590 nm was measured using a SpectraMax M2e plate reader (Molecular Devices).
as §1

SMILES	Microtubule phenotype of mitotic or G2/M arrested cells (A549 NSCLC cells)	Resistance factor (ratio IC50 BAL27862-resistant cell line variant versus IC50 parental cell line) (SKOV3; SKOV3 resistant 1)	Resistance factor (ratio IC50 BAL27862-resistant cell line variant versus IC50 parental cell line) (SKOV3; SKOV3 resistant 2)	Resistance factor (ratio IC50 BAL27862-resistant cell line variant versus IC50 parental cell line) (A549)	Resistance factor (ratio IC50 BAL27862-resistant cell line variant versus IC50 parental cell line) (H460)	other results
N#CCCNc1nonc1-c1nc2ccccc2n1CC(=O)c1ccc(N)cc1 [BAL27862, 3-(4-{1-[2-(4-Amino-phenyl)-2-oxo-ethyl]-1H-benzoimidazol-2-yl}-furazan-3-ylamino)-propionitrile]	dot-like structures	7.6	11.6	3.0	5.3	Resistance factor versus parental line (based on EC50) (Jurkat): 22.5 fold; Resistance factor (ratio EC50 BAL27862-resistant cell line variant versus EC50 parental cell line) (Jurkat; 72 hours, cell death by FACS): 22.5; Microtubule phenotype of mitotic or G2/M arrested cells [1]: dot-like structures; Microtubule phenotype on combination treatment (A549 NSCLC cells; 24 hours vinblastine, colchicine, paclitaxel or nocodazole, BAL27862 added for the last 4 hours): disruption of the microtubule structures; Microtubule phenotype of mitotic or G2/M arrested cells [2]: dot-like structures; Resistance factor versus parental line (based on IC50) (SKOV3; SKOV3 resistant 1): 7.6 fold; Resistance factor versus parental line (based on IC50) (SKOV3; SKOV3 resistant 2): 11.6 fold; Resistance factor versus parental line (based on IC50) (A549): 3.0 fold; Resistance factor versus parental line (based on IC50) (H460): 5.3 fold
COc1cc2c(c(OC)c1OC)-c1ccc(OC)c(=O)cc1[C@@H](NC(C)=O)CC2 [Colchicine, colchicine]	–	2.0	2.8	0.9	1.6	–
Nc1ccc(C(=O)Cn2c(-c3nonc3N)nc3ccccc32)cc1 [Compound B, 2-[2-(4-Amino-furazan-3-yl)-benzoimidazol-1-yl]-1-(4-amino-phenyl)-ethanone]	dot-like structures	–	–	–	–	–
N#CCCNc1nonc1-c1nc2ccccc2n1CC(=O)c1ccc(N)nc1 [Compound C, 3-(4-{1-[2-(6-Amino-pyridin-3-yl)-2-oxo-ethyl]-1H-benzoimidazol-2-yl}-furazan-3-ylamino)-propionitrile]	dot-like structures	–	–	–	–	–
COC(=O)Nc1nc2ccc(C(=O)c3cccs3)cc2[nH]1 [Nocodazole, nocodazole]	–	3.6	3.9	1.6	1.3	–
CC(=O)O[C@H]1C(=O)[C@@]2(C)[C@H]([C@H](OC(=O)c3ccccc3)[C@]3(O)C[C@H](OC(=O)[C@H](O)[C@@H](NC(=O)c4ccccc4)c4ccccc4)C(C)=C1C3(C)C)[C@]1(OC(C)=O)CO[C@@H]1C[C@@H]2O [Paclitaxel, paclitaxel]	–	0.4	0.5	0.06	0.3	Sensitivity of BAL27862-resistant lines compared to parental lines (BAL27862-resistant cells): increased sensitivity
CC[C@]1(O)C[C@@H]2CN(CCc3c([nH]c4ccccc34)[C@@](C(=O)OC)(c3cc4c(cc3OC)N(C)[C@H]3[C@@](O)(C(=O)OC)[C@H](OC(C)=O)[C@]5(CC)C=CCN6CC[C@]43[C@@H]65)C2)C1 [Vinblastine, vinblastine]	–	15.7	–	2.3	4.6	–
